Results published in paper PMC11002716 (ACS chemical biology, 2022).
Ends that are not written are not given here.

Assays:
[1] = target: fluorescein-labeled KB-752; assay: MST
[2] = system: Gs signaling (β2–adrenergic receptor, AC); assay: Cell-free ELISA-based cAMP assay on NG108–15 membrane preparations; format: biochemical
[3] = system: Gi signaling (δ–opioid receptor, AC); assay: as above; format: biochemical; conditions: Fsk+DADLE
[4] = system: HEK293 cells overexpressing the SNAP-β2 adrenergic receptor (Gs signaling pathway); assay: Whole-cell Iso-induced cAMP accumulation assay; format: cell-based
Gαi1·GDP = Gαi1·GDP (UniProt P63096 2-354); assay: MST
Gαi1·GDP (UniProt P63096 2-354), sequence (P63096 2-354): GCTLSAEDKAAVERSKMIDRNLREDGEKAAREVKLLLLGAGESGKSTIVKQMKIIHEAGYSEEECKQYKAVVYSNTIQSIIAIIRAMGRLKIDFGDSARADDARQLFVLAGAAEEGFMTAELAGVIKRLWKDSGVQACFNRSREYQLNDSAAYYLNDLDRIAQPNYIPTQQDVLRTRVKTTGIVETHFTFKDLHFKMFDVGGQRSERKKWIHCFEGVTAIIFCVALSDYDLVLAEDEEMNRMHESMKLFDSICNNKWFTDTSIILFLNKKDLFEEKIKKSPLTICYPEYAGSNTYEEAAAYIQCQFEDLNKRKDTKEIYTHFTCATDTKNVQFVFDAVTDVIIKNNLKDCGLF

Gαi1·GDP (from UniProt P63096 2-354) (natural protein), sequence (P63096 2-354): as above

Gαi1·GDP (from UniProt P63096 2-354) (natural protein)
Kd [1]: 345 nM

SRVTWYDFLMEDTKSR-OH [KB–752]
effect on Gs signaling / functional regulation of Gαs in cell-free ELISA [2]: inhibit Gs signaling | effect on DADLE-mediated inhibition of the AC activity [3]: no effect | effect on Gαs in the whole cell assay [4]: no effect

{5(6)‑carboxyfluorescein}-RWLRALRYP [GPM-1 Y5A, fluorescein-labeled]
Kd (Gαi1·GDP): 285 ± 40 nM
